Data published in the kinase profiling compilation of Christmann-Franck et al. (2016).

Legend:
Assay in all cases: KINOMEscan competition binding
Details in all cases: compound 10.0 µM
ACVRL1 (human) = ACVRL1 (human) (UniProt P37023)
CAMK1G (human) = CAMK1G (human) (UniProt Q96NX5)
CDK17 (human) = CDK17 (human) (UniProt Q00537)
CDK7 (human) = CDK7 (human) (UniProt P50613)
CPK1 (P.falciparum) = system: CPK1 (P.falciparum)
CSNK1A1L (human) = CSNK1A1L (human) (UniProt Q8N752)
DMPK (human) = DMPK (human) (UniProt Q09013)
EPHA2 (human) = EPHA2 (human) (UniProt P29317)
ERBB3 (human) = ERBB3 (human) (UniProt P21860)
FGFR1 (human) = FGFR1 (human) (UniProt P11362)
[1] = system: FLT3 (human), P36888 [D835H]
FLT4 (human) = FLT4 (human) (UniProt P35916)
[2] = system: KIT (human), P10721 [L576P]
MAP3K4 (human) = MAP3K4 (human) (UniProt Q9Y6R4)
MAP3K7 (human) = MAP3K7 (human) (UniProt O43318)
MARK2 (human) = MARK2 (human) (UniProt Q7KZI7)
NEK5 (human) = NEK5 (human) (UniProt Q6P3R8)
NEK6 (human) = NEK6 (human) (UniProt Q9HC98)
NUAK1 (human) = NUAK1 (human) (UniProt O60285)
PDGFRB (human) = PDGFRB (human) (UniProt P09619)
PDPK1 (human) = PDPK1 (human) (UniProt O15530)
PIK3C2B (human) = PIK3C2B (human) (UniProt O00750)
PIK3CG (human) = PIK3CG (human) (UniProt P48736)
PIM3 (human) = PIM3 (human) (UniProt Q86V86)
PIP4K2C (human) = PIP4K2C (human) (UniProt Q8TBX8)
PIP5K1A (human) = PIP5K1A (human) (UniProt Q99755)
PRKACA (human) = PRKACA (human) (UniProt P17612)
PRKG1 (human) = PRKG1 (human) (UniProt Q13976)
[3] = system: RET (human), P07949 [V804M]
RPS6KA4 KD2 (human) = RPS6KA4 KD2 (human) (UniProt O75676)
STK24 (human) = STK24 (human) (UniProt Q9Y6E0)
STK3 (human) = STK3 (human) (UniProt Q13188)
STK38 (human) = STK38 (human) (UniProt Q15208)
STK4 (human) = STK4 (human) (UniProt Q13043)
TAOK1 (human) = TAOK1 (human) (UniProt Q7L7X3)
TLK1 (human) = TLK1 (human) (UniProt Q9UKI8)
TNK1 (human) = TNK1 (human) (UniProt Q13470)
TNNI3K (human) = TNNI3K (human) (UniProt Q59H18)
TXK (human) = TXK (human) (UniProt P42681)
TYRO3 (human) = TYRO3 (human) (UniProt Q06418)
TYRO3 (human), sequence (Q06418 whole entry, looked up): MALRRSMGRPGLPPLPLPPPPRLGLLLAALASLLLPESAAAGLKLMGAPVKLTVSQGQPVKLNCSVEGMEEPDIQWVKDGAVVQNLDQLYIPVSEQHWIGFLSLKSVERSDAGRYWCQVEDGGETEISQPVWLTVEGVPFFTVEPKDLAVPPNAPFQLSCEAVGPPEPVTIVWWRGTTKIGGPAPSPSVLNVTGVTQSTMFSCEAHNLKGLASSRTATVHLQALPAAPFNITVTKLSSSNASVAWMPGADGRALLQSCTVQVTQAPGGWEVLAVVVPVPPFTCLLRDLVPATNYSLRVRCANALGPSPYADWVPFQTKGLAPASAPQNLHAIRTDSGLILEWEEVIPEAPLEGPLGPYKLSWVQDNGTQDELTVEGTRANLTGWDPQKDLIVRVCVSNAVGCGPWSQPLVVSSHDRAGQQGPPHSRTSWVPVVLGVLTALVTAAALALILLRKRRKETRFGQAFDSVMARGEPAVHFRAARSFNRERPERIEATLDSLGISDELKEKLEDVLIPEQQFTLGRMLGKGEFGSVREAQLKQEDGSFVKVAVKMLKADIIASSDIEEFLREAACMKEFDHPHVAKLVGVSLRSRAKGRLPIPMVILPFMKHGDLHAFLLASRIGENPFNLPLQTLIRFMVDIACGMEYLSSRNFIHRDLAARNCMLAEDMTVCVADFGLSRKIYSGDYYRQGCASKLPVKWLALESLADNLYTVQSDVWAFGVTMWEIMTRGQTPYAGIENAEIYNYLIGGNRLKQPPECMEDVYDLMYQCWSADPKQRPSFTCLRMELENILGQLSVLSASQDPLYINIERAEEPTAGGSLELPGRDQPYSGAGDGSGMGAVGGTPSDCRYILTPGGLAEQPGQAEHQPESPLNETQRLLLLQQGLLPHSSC

FLT4 (human), sequence (P35916 whole entry, looked up): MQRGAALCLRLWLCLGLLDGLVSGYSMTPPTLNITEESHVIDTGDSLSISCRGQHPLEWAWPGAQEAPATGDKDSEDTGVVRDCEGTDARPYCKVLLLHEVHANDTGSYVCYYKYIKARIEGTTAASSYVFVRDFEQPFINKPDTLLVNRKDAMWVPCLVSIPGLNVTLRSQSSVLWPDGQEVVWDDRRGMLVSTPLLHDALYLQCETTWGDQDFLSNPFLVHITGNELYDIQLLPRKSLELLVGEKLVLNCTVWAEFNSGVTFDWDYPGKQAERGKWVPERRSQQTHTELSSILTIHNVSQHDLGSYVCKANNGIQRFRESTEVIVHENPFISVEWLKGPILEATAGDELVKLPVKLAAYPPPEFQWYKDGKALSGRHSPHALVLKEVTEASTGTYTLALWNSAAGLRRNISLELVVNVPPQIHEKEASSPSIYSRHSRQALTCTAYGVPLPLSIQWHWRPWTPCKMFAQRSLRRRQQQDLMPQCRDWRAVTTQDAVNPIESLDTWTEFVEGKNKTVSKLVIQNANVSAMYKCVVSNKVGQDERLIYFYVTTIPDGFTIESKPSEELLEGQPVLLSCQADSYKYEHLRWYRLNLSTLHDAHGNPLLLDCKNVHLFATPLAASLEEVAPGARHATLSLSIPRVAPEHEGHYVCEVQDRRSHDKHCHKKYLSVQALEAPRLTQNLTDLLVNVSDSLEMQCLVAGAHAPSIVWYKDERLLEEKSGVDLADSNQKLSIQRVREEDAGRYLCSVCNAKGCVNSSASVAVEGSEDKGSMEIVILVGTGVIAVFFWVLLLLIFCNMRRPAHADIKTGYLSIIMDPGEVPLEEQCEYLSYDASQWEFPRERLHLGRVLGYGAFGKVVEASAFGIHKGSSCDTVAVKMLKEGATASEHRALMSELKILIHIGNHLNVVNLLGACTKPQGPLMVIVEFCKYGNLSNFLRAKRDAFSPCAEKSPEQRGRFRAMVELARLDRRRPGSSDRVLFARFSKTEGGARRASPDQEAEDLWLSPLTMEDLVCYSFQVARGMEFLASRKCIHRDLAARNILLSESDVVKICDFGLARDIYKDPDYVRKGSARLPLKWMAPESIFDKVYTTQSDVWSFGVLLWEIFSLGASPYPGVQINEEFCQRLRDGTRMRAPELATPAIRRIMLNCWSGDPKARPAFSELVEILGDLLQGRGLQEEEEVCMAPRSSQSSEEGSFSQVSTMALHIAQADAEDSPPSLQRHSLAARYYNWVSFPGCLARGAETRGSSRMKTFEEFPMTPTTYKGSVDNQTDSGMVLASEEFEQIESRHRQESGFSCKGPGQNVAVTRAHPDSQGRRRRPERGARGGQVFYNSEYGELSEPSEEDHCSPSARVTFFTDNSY
TNK1 (human), sequence (Q13470 whole entry, looked up): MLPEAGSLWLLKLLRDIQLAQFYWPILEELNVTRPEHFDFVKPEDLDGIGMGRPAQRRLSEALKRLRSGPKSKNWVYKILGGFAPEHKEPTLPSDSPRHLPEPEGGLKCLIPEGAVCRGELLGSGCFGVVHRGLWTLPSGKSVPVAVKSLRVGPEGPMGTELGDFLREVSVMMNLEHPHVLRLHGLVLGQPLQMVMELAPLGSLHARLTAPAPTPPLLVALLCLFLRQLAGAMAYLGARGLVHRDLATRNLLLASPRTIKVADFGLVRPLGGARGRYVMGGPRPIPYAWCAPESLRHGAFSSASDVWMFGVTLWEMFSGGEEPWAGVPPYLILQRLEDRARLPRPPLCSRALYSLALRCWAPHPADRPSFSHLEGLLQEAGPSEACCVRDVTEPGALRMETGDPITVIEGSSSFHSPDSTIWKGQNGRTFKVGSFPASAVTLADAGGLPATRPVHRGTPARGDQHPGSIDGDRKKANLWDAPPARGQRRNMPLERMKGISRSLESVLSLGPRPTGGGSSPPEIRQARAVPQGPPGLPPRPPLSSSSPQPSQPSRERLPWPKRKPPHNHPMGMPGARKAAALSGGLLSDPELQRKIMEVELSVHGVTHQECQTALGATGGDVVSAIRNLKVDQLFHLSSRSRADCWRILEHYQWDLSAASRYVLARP
PIK3C2B (human), sequence (O00750 whole entry, looked up): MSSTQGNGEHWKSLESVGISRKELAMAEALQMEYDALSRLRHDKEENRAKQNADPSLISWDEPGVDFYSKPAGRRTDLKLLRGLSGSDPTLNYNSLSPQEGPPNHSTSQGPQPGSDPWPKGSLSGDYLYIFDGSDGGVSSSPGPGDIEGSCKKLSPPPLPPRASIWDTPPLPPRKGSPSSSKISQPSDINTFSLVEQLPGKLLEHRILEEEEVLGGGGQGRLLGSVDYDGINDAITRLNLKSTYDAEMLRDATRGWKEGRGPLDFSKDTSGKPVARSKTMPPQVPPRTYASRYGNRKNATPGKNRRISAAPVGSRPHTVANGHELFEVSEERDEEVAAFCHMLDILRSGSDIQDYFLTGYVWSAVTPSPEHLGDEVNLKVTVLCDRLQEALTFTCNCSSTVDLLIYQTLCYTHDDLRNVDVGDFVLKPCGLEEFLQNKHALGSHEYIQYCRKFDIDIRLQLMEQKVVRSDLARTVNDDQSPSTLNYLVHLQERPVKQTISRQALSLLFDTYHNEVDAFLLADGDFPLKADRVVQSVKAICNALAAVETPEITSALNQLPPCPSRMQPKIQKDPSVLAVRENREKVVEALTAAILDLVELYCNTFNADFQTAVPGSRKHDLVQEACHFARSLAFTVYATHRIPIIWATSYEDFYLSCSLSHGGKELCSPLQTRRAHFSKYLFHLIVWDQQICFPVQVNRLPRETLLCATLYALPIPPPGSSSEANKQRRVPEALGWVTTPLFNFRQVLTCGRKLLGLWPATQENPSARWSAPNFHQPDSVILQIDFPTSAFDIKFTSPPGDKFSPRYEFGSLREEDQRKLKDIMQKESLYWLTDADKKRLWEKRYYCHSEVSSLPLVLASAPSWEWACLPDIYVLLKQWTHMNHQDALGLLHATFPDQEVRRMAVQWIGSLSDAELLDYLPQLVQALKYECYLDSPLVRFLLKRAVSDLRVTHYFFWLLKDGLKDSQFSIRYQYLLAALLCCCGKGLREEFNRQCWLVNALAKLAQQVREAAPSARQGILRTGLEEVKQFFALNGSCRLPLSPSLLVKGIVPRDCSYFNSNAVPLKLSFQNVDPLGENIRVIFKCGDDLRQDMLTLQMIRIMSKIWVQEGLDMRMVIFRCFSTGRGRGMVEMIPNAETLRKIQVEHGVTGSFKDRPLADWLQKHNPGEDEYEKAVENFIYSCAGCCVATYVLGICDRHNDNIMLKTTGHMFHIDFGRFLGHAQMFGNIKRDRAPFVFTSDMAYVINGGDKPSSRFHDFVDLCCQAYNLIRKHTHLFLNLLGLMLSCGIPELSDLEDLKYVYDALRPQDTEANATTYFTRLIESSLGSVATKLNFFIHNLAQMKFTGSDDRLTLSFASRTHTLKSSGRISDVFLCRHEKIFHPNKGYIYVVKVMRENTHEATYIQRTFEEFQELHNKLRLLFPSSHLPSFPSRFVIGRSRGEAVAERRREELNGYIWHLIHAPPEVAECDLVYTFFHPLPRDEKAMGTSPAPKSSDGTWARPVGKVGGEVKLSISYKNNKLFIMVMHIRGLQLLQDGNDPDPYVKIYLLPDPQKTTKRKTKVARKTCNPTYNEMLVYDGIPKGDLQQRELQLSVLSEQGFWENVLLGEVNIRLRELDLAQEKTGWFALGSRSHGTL
PIP5K1A (human), sequence (Q99755 whole entry, looked up): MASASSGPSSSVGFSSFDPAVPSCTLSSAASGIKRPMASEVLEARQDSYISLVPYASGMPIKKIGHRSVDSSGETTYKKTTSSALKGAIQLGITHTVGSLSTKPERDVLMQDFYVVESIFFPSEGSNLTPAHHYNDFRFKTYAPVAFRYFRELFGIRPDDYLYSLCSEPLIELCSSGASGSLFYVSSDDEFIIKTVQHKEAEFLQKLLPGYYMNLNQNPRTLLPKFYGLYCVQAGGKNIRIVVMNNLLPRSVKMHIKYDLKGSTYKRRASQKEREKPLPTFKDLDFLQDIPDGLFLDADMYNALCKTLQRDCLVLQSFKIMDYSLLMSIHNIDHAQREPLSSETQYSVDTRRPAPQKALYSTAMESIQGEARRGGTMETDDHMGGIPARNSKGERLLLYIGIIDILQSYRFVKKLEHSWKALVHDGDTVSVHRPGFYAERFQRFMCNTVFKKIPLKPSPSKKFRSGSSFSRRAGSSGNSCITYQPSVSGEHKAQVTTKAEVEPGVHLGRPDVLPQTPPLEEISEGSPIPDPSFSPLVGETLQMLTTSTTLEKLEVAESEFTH

COc1cc(C(=O)N2CCC(N3CCN(C)CC3)CC2)ccc1Nc1ncc2c(n1)N(C)c1ccccc1C(=O)N2C
kinase still bound, per cent of control (ACVRL1 (human)): 100% | kinase still bound, per cent of control (CAMK1G (human)): 74% | kinase still bound, per cent of control (CDK17 (human)): 83% | kinase still bound, per cent of control (CDK7 (human)): 86% | kinase still bound, per cent of control (CPK1 (P.falciparum)): 100% | kinase still bound, per cent of control (CSNK1A1L (human)): 100% | kinase still bound, per cent of control (DMPK (human)): 100% | kinase still bound, per cent of control (EPHA2 (human)): 92% | kinase still bound, per cent of control (ERBB3 (human)): 100% | kinase still bound, per cent of control (FGFR1 (human)): 86% | kinase still bound, per cent of control [1]: 100% | kinase still bound, per cent of control (FLT4 (human)): 100% | kinase still bound, per cent of control [2]: 100% | kinase still bound, per cent of control (MAP3K4 (human)): 100% | kinase still bound, per cent of control (MAP3K7 (human)): 98% | kinase still bound, per cent of control (MARK2 (human)): 100% | kinase still bound, per cent of control (NEK5 (human)): 100% | kinase still bound, per cent of control (NEK6 (human)): 76% | kinase still bound, per cent of control (NUAK1 (human)): 47% | kinase still bound, per cent of control (PDGFRB (human)): 100% | kinase still bound, per cent of control (PDPK1 (human)): 100% | kinase still bound, per cent of control (PIK3C2B (human)): 100% | kinase still bound, per cent of control (PIK3CG (human)): 15% | kinase still bound, per cent of control (PIM3 (human)): 88% | kinase still bound, per cent of control (PIP4K2C (human)): 40% | kinase still bound, per cent of control (PIP5K1A (human)): 90% | kinase still bound, per cent of control (PRKACA (human)): 100% | kinase still bound, per cent of control (PRKG1 (human)): 98% | kinase still bound, per cent of control [3]: 80% | kinase still bound, per cent of control (RPS6KA4 KD2 (human)): 46% | kinase still bound, per cent of control (STK24 (human)): 87% | kinase still bound, per cent of control (STK3 (human)): 71% | kinase still bound, per cent of control (STK38 (human)): 96% | kinase still bound, per cent of control (STK4 (human)): 100% | kinase still bound, per cent of control (TAOK1 (human)): 28% | kinase still bound, per cent of control (TLK1 (human)): 100% | kinase still bound, per cent of control (TNK1 (human)): 2.8% | kinase still bound, per cent of control (TNNI3K (human)): 100% | kinase still bound, per cent of control (TXK (human)): 91% | kinase still bound, per cent of control (TYRO3 (human)): 100%

CN(C)C/C=C/C(=O)Nc1ccc(C(=O)Nc2cccc(Nc3nccc(-c4cccnc4)n3)c2)cc1
kinase still bound, per cent of control (ACVRL1 (human)): 97% | kinase still bound, per cent of control (CAMK1G (human)): 64% | kinase still bound, per cent of control (CDK17 (human)): 92% | kinase still bound, per cent of control (CDK7 (human)): 3.2% | kinase still bound, per cent of control (CPK1 (P.falciparum)): 100% | kinase still bound, per cent of control (CSNK1A1L (human)): 100% | kinase still bound, per cent of control (DMPK (human)): 64% | kinase still bound, per cent of control (EPHA2 (human)): 97% | kinase still bound, per cent of control (ERBB3 (human)): 57% | kinase still bound, per cent of control (FGFR1 (human)): 89% | kinase still bound, per cent of control [1]: 28% | kinase still bound, per cent of control (FLT4 (human)): 97% | kinase still bound, per cent of control [2]: 0.35% | kinase still bound, per cent of control (MAP3K4 (human)): 71% | kinase still bound, per cent of control (MAP3K7 (human)): 9.2% | kinase still bound, per cent of control (MARK2 (human)): 73% | kinase still bound, per cent of control (NEK5 (human)): 2.2% | kinase still bound, per cent of control (NEK6 (human)): 2.8% | kinase still bound, per cent of control (NUAK1 (human)): 61% | kinase still bound, per cent of control (PDGFRB (human)): 3.6% | kinase still bound, per cent of control (PDPK1 (human)): 100% | kinase still bound, per cent of control (PIK3C2B (human)): 100% | kinase still bound, per cent of control (PIK3CG (human)): 13% | kinase still bound, per cent of control (PIM3 (human)): 78% | kinase still bound, per cent of control (PIP4K2C (human)): 0.8% | kinase still bound, per cent of control (PIP5K1A (human)): 34% | kinase still bound, per cent of control (PRKACA (human)): 100% | kinase still bound, per cent of control (PRKG1 (human)): 100% | kinase still bound, per cent of control [3]: 74% | kinase still bound, per cent of control (RPS6KA4 KD2 (human)): 80% | kinase still bound, per cent of control (STK24 (human)): 100% | kinase still bound, per cent of control (STK3 (human)): 100% | kinase still bound, per cent of control (STK38 (human)): 90% | kinase still bound, per cent of control (STK4 (human)): 100% | kinase still bound, per cent of control (TAOK1 (human)): 28% | kinase still bound, per cent of control (TLK1 (human)): 92% | kinase still bound, per cent of control (TNK1 (human)): 20% | kinase still bound, per cent of control (TNNI3K (human)): 100% | kinase still bound, per cent of control (TXK (human)): 67% | kinase still bound, per cent of control (TYRO3 (human)): 100%

CCN1CCN(C(=O)Cc2ccc(Nc3ncc(F)c(Nc4ccc(C(=O)Nc5ccccc5Cl)cc4)n3)cc2)CC1
kinase still bound, per cent of control (ACVRL1 (human)): 100% | kinase still bound, per cent of control (CAMK1G (human)): 39% | kinase still bound, per cent of control (CDK17 (human)): 35% | kinase still bound, per cent of control (CDK7 (human)): 22% | kinase still bound, per cent of control (CPK1 (P.falciparum)): 29% | kinase still bound, per cent of control (CSNK1A1L (human)): 100% | kinase still bound, per cent of control (DMPK (human)): 100% | kinase still bound, per cent of control (EPHA2 (human)): 51% | kinase still bound, per cent of control (ERBB3 (human)): 45% | kinase still bound, per cent of control (FGFR1 (human)): 14% | kinase still bound, per cent of control [1]: 0.6% | kinase still bound, per cent of control (FLT4 (human)): 7.6% | kinase still bound, per cent of control [2]: 3.2% | kinase still bound, per cent of control (MAP3K4 (human)): 83% | kinase still bound, per cent of control (MAP3K7 (human)): 2.9% | kinase still bound, per cent of control (MARK2 (human)): 50% | kinase still bound, per cent of control (NEK5 (human)): 7.9% | kinase still bound, per cent of control (NEK6 (human)): 8.4% | kinase still bound, per cent of control (NUAK1 (human)): 18% | kinase still bound, per cent of control (PDGFRB (human)): 0.15% | kinase still bound, per cent of control (PDPK1 (human)): 96% | kinase still bound, per cent of control (PIK3C2B (human)): 93% | kinase still bound, per cent of control (PIK3CG (human)): 65% | kinase still bound, per cent of control (PIM3 (human)): 67% | kinase still bound, per cent of control (PIP4K2C (human)): 38% | kinase still bound, per cent of control (PIP5K1A (human)): 0% | kinase still bound, per cent of control (PRKACA (human)): 42% | kinase still bound, per cent of control (PRKG1 (human)): 100% | kinase still bound, per cent of control [3]: 4.6% | kinase still bound, per cent of control (RPS6KA4 KD2 (human)): 100% | kinase still bound, per cent of control (STK24 (human)): 32% | kinase still bound, per cent of control (STK3 (human)): 100% | kinase still bound, per cent of control (STK38 (human)): 70% | kinase still bound, per cent of control (STK4 (human)): 98% | kinase still bound, per cent of control (TAOK1 (human)): 62% | kinase still bound, per cent of control (TLK1 (human)): 19% | kinase still bound, per cent of control (TNK1 (human)): 1.3% | kinase still bound, per cent of control (TNNI3K (human)): 24% | kinase still bound, per cent of control (TXK (human)): 2.2% | kinase still bound, per cent of control (TYRO3 (human)): 79%
